Results reported in ChEMBL document CHEMBL5338783, “Discovery of an Anti-TNF-α 9-mer Peptide from a T7 Phage Display Library for the Treatment of Inflammatory Bowel Disease” (J Med Chem, 2023).
Active and inactive are the calls of the source. No cut-off for these calls is given here. Peptide text beside a SMILES is read from it.

Tests used:
[1] = system: Mus musculus; assay: Antiinflammatory activity against DSS-induced acute colitis in C57BL/6 mouse model assessed as decrease in p38 phosphorylation in colon tissue administered intraperitoneally daily for 7 days by Western blot analysis; type: functional, organism-based; conditions: dose 0.5-1 mg/kg, route ip, time 7.0 day
[2] = target: T1, Tumor necrosis factor receptor superfamily member 1B (Homo sapiens) (UniProt P20333); assay: Inhibition of TNF-alpha (unknown origin) binding to TNFR2 by SPR analysis
T1 sequence (whole entry): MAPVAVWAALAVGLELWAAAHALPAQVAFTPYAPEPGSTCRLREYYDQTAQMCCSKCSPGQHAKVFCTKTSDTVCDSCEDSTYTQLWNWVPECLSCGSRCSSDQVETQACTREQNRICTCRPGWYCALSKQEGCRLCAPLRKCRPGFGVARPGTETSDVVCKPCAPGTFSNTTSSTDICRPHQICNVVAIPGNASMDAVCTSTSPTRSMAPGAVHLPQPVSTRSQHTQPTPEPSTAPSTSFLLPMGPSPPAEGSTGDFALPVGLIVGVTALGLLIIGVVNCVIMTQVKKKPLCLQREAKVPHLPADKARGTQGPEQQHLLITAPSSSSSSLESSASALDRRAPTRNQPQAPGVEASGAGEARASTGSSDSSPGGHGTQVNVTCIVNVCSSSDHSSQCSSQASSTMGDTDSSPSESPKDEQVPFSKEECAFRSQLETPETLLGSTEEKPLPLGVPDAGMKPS

[3] = system: Mus musculus; assay: Anti-colitis activity against DSS-induced acute colitis in C57BL/6 mouse model assessed as reduction in colonic tissue damage at 0.5 to 1 mg/kg, ip daily for 7 days by H and E staining based analysis; type: functional, organism-based; conditions: dose 0.5-1 mg/kg, time 7.0 day
[4] = system: Mus musculus; assay: Antiinflammatory activity against DSS-induced acute colitis in C57BL/6 mouse model assessed as decrease in JNK1/2 phosphorylation in colon tissue administered intraperitoneally daily for 7 days by Western blot analysis; type: functional, organism-based; conditions: dose 0.5-1 mg/kg, route ip, time 7.0 day
[5] = system: RAW264.7; assay: Antiinflammatory activity in mouse RAW264.7 cells assessed as decrease in LPS-stimulated IL-1beta protein expression incubated for 3 hrs by flow cytometry; type: functional, cell-based; conditions: dose 25-100 µM
[6] = system: RAW264.7; assay: Cytotoxicity against mouse RAW264.7 cells upto 1000 uM; type: toxicity, cell-based; conditions: raw264.7, 1000 µM
[7] = system: Mus musculus; assay: Antiinflammatory activity against DSS-induced acute colitis in C57BL/6 mouse model assessed as decrease in ERK1/2 phosphorylation in colon tissue administered intraperitoneally daily for 7 days by Western blot analysis; type: functional, organism-based; conditions: dose 0.5-1 mg/kg, route ip, time 7.0 day
[8] = system: Mus musculus; assay: Anti-colitis activity against DSS-induced acute colitis in C57BL/6 mouse model assessed as protection of body weight loss at 0.5 to 1 mg/kg, ip daily for 7 days; type: functional, organism-based; conditions: dose 0.5-1 mg/kg, time 7.0 day
[9] = system: BMDM; assay: Antiinflammatory activity in LPS-stimulated mouse BMDM cells assessed as inhibition of MAPK signalling pathway incubated for 3 hrs by Western blot analysis; type: functional, cell-based; conditions: dose 25-100 µM
[10] = system: BMDM; assay: Antiinflammatory activity in mouse BMDM cells assessed as decrease in LPS-stimulated TNF-alpha mRNA level incubated for 3 hrs by RT-qPCR analysis; type: functional, cell-based; conditions: dose 25-100 µM
[11] = system: L929; assay: Cytotoxicity against mouse L929 cells upto 1000 uM; type: toxicity, cell-based; conditions: l929, 1000 µM
[12] = system: RAW264.7; assay: Antiinflammatory activity in mouse RAW264.7 cells assessed as decrease in LPS-stimulated IFN-gamma mRNA level at 25 to 100 uM incubated for 3 hrs by RT-qPCR analysis; type: functional, cell-based; conditions: dose 25-100 µM
[13] = target: T2, Tumor necrosis factor (Homo sapiens, UniProt P01375); assay: Binding affinity to recombinant TNF-alpha (unknown origin) assessed as dissociation constant incubated for 10 mins by MST assay
[14] = system: Mus musculus; assay: Anti-colitis activity against DSS-induced acute colitis in C57BL/6 mouse model assessed as increase in spleen index at 0.5 to 1 mg/kg, ip daily for 7 days; type: functional, organism-based; conditions: dose 0.5-1 mg/kg, time 7.0 day
[15] = system: Mus musculus; assay: Antiinflammatory activity against DSS-induced acute colitis in C57BL/6 mouse model assessed as decrease in p65 phosphorylation in colon tissue administered intraperitoneally daily for 7 days by Western blot analysis; type: functional, organism-based; conditions: dose 0.5-1 mg/kg, route ip, time 7.0 day
[16] = system: RAW264.7; assay: Antiinflammatory activity in mouse RAW264.7 cells assessed as decrease in LPS-stimulated IL-6 mRNA level at 25 to 100 uM incubated for 3 hrs by RT-qPCR analysis; type: functional, cell-based; conditions: dose 25-100 µM
[17] = target: T1, Tumor necrosis factor receptor superfamily member 1B (Homo sapiens); assay: Binding affinity to TNFR2 (unknown origin) at 488.3 to 500 uM incubated for 10 mins by MST assay; conditions: dose 488.3-500 µM
[18] = system: RAW264.7; assay: Antiinflammatory activity in LPS-stimulated mouse RAW264.7 cells assessed as inhibition of JNK1/2 phosphorylation incubated for 3 hrs by Western blot analysis; type: functional, cell-based; conditions: dose 25-100 µM
[19] = system: Mus musculus; assay: Anti-colitis activity against DSS-induced acute colitis in C57BL/6 mouse model assessed as […] in IFN-gamma mRNA level at 0.5 to 1 mg/kg, ip daily for 7 days by RT-qPCR analysis; type: functional, organism-based; conditions: dose 0.5-1 mg/kg, time 7.0 day
[20] = Toxicity in DSS-induced acute colitis in C57BL/6 mouse model assessed as animal survival at 0.5 to 1 mg/kg, ip daily for 11 days; type: organism-based; conditions: in vivo, 264 h, dose 0.5-1 mg/kg, time 11 day
[21] = target: T2, Tumor necrosis factor; assay: Binding affinity to TNF-alpha (unknown origin) assessed as dissociation constant by SPR analysis
[22] = system: RAW264.7; assay: Antiinflammatory activity in LPS-stimulated mouse RAW264.7 cells assessed as inhibition of ERK1/2 phosphorylation incubated for 3 hrs by Western blot analysis; type: functional, cell-based; conditions: dose 25-100 µM
[23] = system: RAW264.7; assay: Antiinflammatory activity in mouse RAW264.7 cells assessed as decrease in LPS-stimulated IFN-gamma protein expression incubated for 3 hrs by flow cytometry; type: functional, cell-based; conditions: dose 25-100 µM
[24] = system: RAW264.7; assay: Antiinflammatory activity in LPS-stimulated mouse RAW264.7 cells assessed as inhibition of IkappaBalpha phosphorylation incubated for 3 hrs by Western blot analysis; type: functional, cell-based; conditions: dose 25-100 µM
[25] = system: BMDM; assay: Antiinflammatory activity in mouse BMDM cells assessed as decrease in LPS-stimulated IL-6 mRNA level incubated for 3 hrs by RT-qPCR analysis; type: functional, cell-based; conditions: dose 25-100 µM
[26] = system: RAW264.7; assay: Antiinflammatory activity in mouse RAW264.7 cells assessed as decrease in LPS-stimulated TNF-alpha mRNA level at 25 to 100 uM incubated for 3 hrs by RT-qPCR analysis; type: functional, cell-based; conditions: dose 25-100 µM
[27] = system: Mus musculus; assay: Anti-colitis activity against DSS-induced acute colitis in C57BL/6 mouse model assessed as decrease in disease activity index at 1 mg/kg, ip daily for 7 days; type: functional; conditions: time 7 day
[28] = system: Mus musculus; assay: Anti-colitis activity against DSS-induced acute colitis in C57BL/6 mouse model assessed as reduction in goblet cell depletion in colon at 0.5 to 1 mg/kg, ip daily for 11 days by H and E staining based analysis; type: functional, organism-based; conditions: dose 0.5-1 mg/kg, time 11.0 day
[29] = system: RAW264.7; assay: Antiinflammatory activity in mouse RAW264.7 cells assessed as decrease in LPS-stimulated TNF-alpha protein expression incubated for 3 hrs by flow cytometry; type: functional, cell-based; conditions: dose 25-100 µM
[30] = system: BMDM; assay: Antiinflammatory activity in LPS-stimulated mouse BMDM cells assessed as inhibition of NF-kappaB signalling pathway incubated for 3 hrs by Western blot analysis; type: functional, cell-based; conditions: dose 25-100 µM
[31] = system: RAW264.7; assay: Antiinflammatory activity in mouse RAW264.7 cells assessed as decrease in LPS-stimulated IL-1beta mRNA level incubated for 3 hrs by RT-qPCR analysis; type: functional, cell-based; conditions: dose 25-100 µM

T2 sequence (P01375 whole entry): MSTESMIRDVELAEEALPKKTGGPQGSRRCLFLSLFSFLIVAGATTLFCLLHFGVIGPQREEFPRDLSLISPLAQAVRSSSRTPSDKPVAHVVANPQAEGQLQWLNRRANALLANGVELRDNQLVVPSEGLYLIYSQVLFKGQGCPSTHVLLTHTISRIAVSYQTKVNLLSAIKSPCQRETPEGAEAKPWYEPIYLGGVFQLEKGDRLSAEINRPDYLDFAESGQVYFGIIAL

C[C@H](N)C(=O)N[C@@H](CS)C(=O)N[C@@H](Cc1cnc[nH]1)C(=O)N[C@@H](C)C(=O)N[C@@H](Cc1c[nH]c2ccccc12)C(=O)N[C@@H](C)C(=O)N1CCC[C@H]1C(=O)N[C@H](C(=O)N[C@@H](CCCNC(=N)N)C(=O)O)[C@@H](C)O (H-ACHAWAPTR-OH)
Activity [1]: Dose-Dependent Effect | inhibition [2]: Active | Activity [3]: Active | Activity [4]: Dose-Dependent Effect | Activity [5]: Dose-Dependent Effect | Activity [6]: Non-Toxic | Activity [7]: Dose-Dependent Effect | Activity [8]: Active | Activity [9]: Dose-Dependent Effect | Activity [10]: Dose-Dependent Effect | Activity [11]: Non-Toxic | Activity [12]: Dose-Dependent Effect | Kd [13]: 5.14 µM | Activity [14]: Active | Activity [15]: Dose-Dependent Effect | Activity [16]: Dose-Dependent Effect | Activity [17]: inactive | Activity [18]: Dose-Dependent Effect | Activity [19]: Active | Activity [20]: Non-Toxic | Kd [21]: 6 µM | Activity [22]: Dose-Dependent Effect | Activity [23]: Dose-Dependent Effect | Activity [24]: Dose-Dependent Effect | Activity [25]: Dose-Dependent Effect | Activity [26]: Dose-Dependent Effect | Activity [27]: -1.25 | Activity [28]: Active | Activity [29]: Dose-Dependent Effect | Activity [30]: Dose-Dependent Effect | Activity [31]: Active
